Measurements from patent EP4759810A1, “PROTAC TARGETING BCL-XL PROTEIN AND USE THEREOF” (BEIJING SUNCELL BIO-MEDICAL CO., LTD., priority 2023, dated 2025).

Key:
[1] = Metabolic stability assay in liver microsomes (mouse); type: in vitro ADME
In short: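 Human or mouse liver microsomes at 0.5 mg/mL with 1 µM compound at 37 °C, plus or minus NADPH; samples at 0–60 min quenched in cold acetonitrile with internal standards, analysed by LC-MS/MS. Half-life and intrinsic clearance from linear fit of ln % remaining versus time.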

MRC5 cells = experiment: Senescent cell killing activity test, MRC5 cell model (CCK-8); type: cell-based, human
Procedure: To avoid replication of the induced senescent cells, low-passage proliferating HEF cells (<10 passages), MRC5 cells (<6 passages), and BJ cells (<10 passages) were used as normal controls. For chemical drug induced senescence, HEF cells were treated with 10 µM etoposide (Selleck, S1225) for 36-48 hours, MRC5 cells were treated with 5 µM bleomycin (Selleck, S1225) for 72 hours, and BJ cells were treated with 10 µg/mL bleomycin for 72 hours. Three days after the treatment, the cells were subcultured in fresh culture medium at a 1:3 ratio for 72 hours before further analysis and use.
Non-senescent and induced-senescent HEF cells, non-senescent and induced-senescent MRC5 cells, and non-senescent and induced-senescent BJ cells were respectively digested with trypsin, and centrifuged at 1000 rpm for 5 minutes. Then, the supernatant was removed, and the cells were resuspended in fresh DMEM culture medium containing 10% fetal bovine serum for counting. The cell density was adjusted so that the non-senescent cell density was 4000 cells/100 µL and the senescent cell density was 7000 cells/100 µL. 100 µL of the cell suspension was added to each well of a 96-well transparent cell culture plate. It was noted that the edge wells of the 96-well plate were not used as testing wells, and 300 µL of PBS alone was added to these wells to reduce evaporation of the culture medium. The 96-well plates with the well-plated cells were placed back in a 37°C incubator for overnight culture until the cells adhered. On the next day, the small molecule compounds to be tested were prepared and added after the cells had adhered.
A series of small molecule concentration gradients (0.01, 0.03, 0.1, 0.3, 1, 3, 10, and 25 µM) were pre-set, and a series of 2× drug dilutions for the above concentrations were prepared in DMEM culture medium containing 10% fetal bovine serum. 100 µL of the above DMEM culture medium containing the gradient concentrations of the drug was added to each well of the 96-well plate that had been well-plated with cells, so that the final drug concentration in each well was the pre-set series of concentrations. Three replicate wells were used for each test drug concentration. The 96-well plates were placed back in a 37°C incubator, and cell viability was measured after three days.
Three days after adding the drug, the plates were taken out, and the supernatant was discarded. 100 µL of pre-prepared CCK-8 working solution was added to each well. The CCK-8 working solution was obtained through diluting a CCK-8 stock solution (C0041, Beyotime) with a serum-free DMEM culture medium by 10-fold volumn. The 96-well plates containing the CCK-8 working solution were placed back in the 37°C incubator and incubated for 0.5-2 hours. The plates were then taken out, and the absorbance value (OD value) of each well was measured at a wavelength of 450 nm. The cell viability in each experimental group was calculated according to the following formula: Relative cell viability (%) = (Blank control group - Experimental group) / Blank control group × 100%.

[2] = mouse liver microsomes 0.5 mg/mL, 1 µM compound, 37°C

| SMILES | Clint [1, 2] | half-life at 1 µM [1, 2] | microsomal CLint at 1 µM ([1]; mouse liver microsomes, read-out: clearance rate (metabolic clearance rate)) | activity for killing senescent cells at lower concentrations compared to A-1331852 (MRC5 cells; 0.01 µM and 0.03 µM) | selectivity for senescent cells (MRC5 cells; Figures 3G-3L) |
| --- | --- | --- | --- | --- | --- |
| O=C1CCC(N2C(=O)c3cccc(NCCN4CCC(CN5CCN(CC#Cc6ccc(OCCCc7ccc(N8CCc9cccc(C(=O)Nc%10nc%11ccccc%11s%10)c9C8)nc7C(=O)O)c(F)c6)CC5)CC4)c3C2=O)C(=O)N1 (centres unmarked) [APQ2] | 4.30 µL/min/mg protein | 5.37 h | 4.3 µL/min/mg |  |  |
| O=C1CCN(c2ccc(N3CCC(CN4CCN(CC#Cc5ccc(OCCCc6ccc(N7CCc8cccc(C(=O)Nc9nc%10ccccc%10s9)c8C7)nc6C(=O)O)c(F)c5)CC4)CC3)cc2)C(=O)N1 [APQ10] |  |  |  | superior to that of A-1331852 | better selectivity for senescent cells |
